Laboratory results as given in PubChem BioAssay AID2060512 (Molecular Pharmacology Branch, DTP, NCI, 2025).

System: 186277-243-T-J2-PDC complex spheroid viability
Experiment: Anticancer human tumor 186277-243-T-J2-PDC patient-derived colon adenocarcinoma cell line growth inhibition [GQUAD]
Details: for IC50: curve of first compound; for viability, T/C: stronger effect = lower value
How it was run: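 Tumor cells were grown as complex spheroids with HUVEC endothelial cells and mesenchymal stem cells as stroma. G-quadruplex stabilizers were combined with targeted agents over half-log dilutions from near the clinical Cmax, or from 10 microM.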

[1] = second compound 0.0316 µM, first compound 0.0316 µM
[2] = second compound 0.0316 µM, first compound 0.1 µM
[3] = second compound 0.0316 µM, first compound 0.316 µM
[4] = second compound 0.0316 µM, first compound 1 µM
[5] = second compound 0.0316 µM, first compound 3.16 µM
[6] = second compound 0.0316 µM, first compound 10 µM
[7] = second compound 0.1 µM, first compound 0.0316 µM
[8] = second compound 0.1 µM, first compound 0.1 µM
[9] = second compound 0.1 µM, first compound 0.316 µM
[10] = second compound 0.1 µM, first compound 1 µM
[11] = second compound 0.1 µM, first compound 3.16 µM
[12] = second compound 0.1 µM, first compound 10 µM
[13] = second compound 0.316 µM, first compound 0.0316 µM
[14] = second compound 0.316 µM, first compound 0.1 µM
[15] = second compound 0.316 µM, first compound 0.316 µM
[16] = second compound 0.316 µM, first compound 1 µM
[17] = second compound 0.316 µM, first compound 3.16 µM
[18] = second compound 0.316 µM, first compound 10 µM
[19] = second compound 1 µM, first compound 0.0316 µM
[20] = second compound 1 µM, first compound 0.1 µM
[21] = second compound 1 µM, first compound 0.316 µM
[22] = second compound 1 µM, first compound 1 µM
[23] = second compound 1 µM, first compound 3.16 µM
[24] = second compound 1 µM, first compound 10 µM
[25] = second compound 3.16 µM, first compound 0.0316 µM
[26] = second compound 3.16 µM, first compound 0.1 µM
[27] = second compound 3.16 µM, first compound 0.316 µM
[28] = second compound 3.16 µM, first compound 1 µM
[29] = second compound 3.16 µM, first compound 3.16 µM
[30] = second compound 3.16 µM, first compound 10 µM
[31] = second compound 10 µM, first compound 0.0316 µM
[32] = second compound 10 µM, first compound 0.1 µM
[33] = second compound 10 µM, first compound 0.316 µM
[34] = second compound 10 µM, first compound 1 µM
[35] = second compound 10 µM, first compound 3.16 µM
[36] = second compound 10 µM, first compound 10 µM
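Also: spheroids exposed to drugs for 7 days.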
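For viability, T/C in this document: 100% = DMSO vehicle control viability.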

In the case of `C=CC(=O)N1CCN(c2nc(=O)n(-c3c(C)ccnc3C(C)C)c3nc(-c4c(O)cccc4F)c(F)cc23)C(C)C1` (stereo unspecified) + Cc1[nH]c2ccc(F)cc2c1-c1nc2c3cccnc3c3ncccc3c2[nH]1, the IC50 (second compound 0.0316 µM) is reported as over 10000 nM, the IC50 (second compound 0.1 µM) is reported as over 10000 nM and the IC50 (second compound 0.316 µM) is reported as over 10000 nM. The IC50 (second compound 1 µM) was over 10000 nM, the IC50 (second compound 3.16 µM) was over 10000 nM and the IC50 (second compound 10 µM) was over 10000 nM. The viability, T/C [1] was 92.4%, the viability, T/C [2] was 87.1% and the viability, T/C [3] was 92.5%. It also gave a viability, T/C [4] of 85.2%, a viability, T/C [5] of 107% and a viability, T/C [6] of 94.9%. The viability, T/C [7] was 95.7%, the viability, T/C [8] was 97% and the viability, T/C [9] was 101%. The viability, T/C [10] was 78.5%, the viability, T/C [11] was 113% and the viability, T/C [12] was 92.8%. The viability, T/C [13] was 98.9%, the viability, T/C [14] was 110% and the viability, T/C [15] was 89.3%. For the same compound, the viability, T/C [16] was 91.3%, the viability, T/C [17] was 97.2% and the viability, T/C [18] was 88.7%. The viability, T/C [19] was 98.1%, the viability, T/C [20] was 88.4% and the viability, T/C [21] was 107%. It also gave a viability, T/C [22] of 87.6%, a viability, T/C [23] of 111% and a viability, T/C [24] of 96.3%. The viability, T/C [25] was 84%, the viability, T/C [26] was 96.2% and the viability, T/C [27] was 92%. For the same compound, the viability, T/C [28] was 96%, the viability, T/C [29] was 108% and the viability, T/C [30] was 96%. It also gave a viability, T/C [31] of 94%, a viability, T/C [32] of 99.7% and a viability, T/C [33] of 99.1%. The viability, T/C [34] was 109%, the viability, T/C [35] was 102% and the viability, T/C [36] was 80.8%.
`CC1COCCN1c1cc(C2(O)CC3CCC(C2)O3)c2cnn(-c3ccn[nH]3)c2n1` (stereo unspecified) + Cc1cnc(CNC(=O)c2c(=O)c3ccc(N4CCCN(C)CC4)nc3n3c2sc2ccccc23)cn1 gave an IC50 (second compound 0.0316 µM) of under 31.6 nM, an IC50 (second compound 0.1 µM) of under 31.6 nM and an IC50 (second compound 0.316 µM) of under 31.6 nM. It also gave an IC50 (second compound 1 µM) of under 31.6 nM, an IC50 (second compound 3.16 µM) of under 31.6 nM and an IC50 (second compound 10 µM) of under 31.6 nM. It also gave a viability, T/C [1] of 31.3%, a viability, T/C [2] of 13.1% and a viability, T/C [3] of 5.91%. For the same compound, the viability, T/C [4] was 3.51%, the viability, T/C [5] was 5.56% and the viability, T/C [6] was 3.63%. The viability, T/C [7] was 38.7%, the viability, T/C [8] was 16.4% and the viability, T/C [9] was 8.6%. The viability, T/C [10] was 4.53%, the viability, T/C [11] was 4.78% and the viability, T/C [12] was 2.97%. It also gave a viability, T/C [13] of 37.7%, a viability, T/C [14] of 20.9% and a viability, T/C [15] of 13.4%. For the same compound, the viability, T/C [16] was 6.49%, the viability, T/C [17] was 4.71% and the viability, T/C [18] was 2.1%. The viability, T/C [19] was 29.5%, the viability, T/C [20] was 31.5% and the viability, T/C [21] was 16.4%. For the same compound, the viability, T/C [22] was 8.79%, the viability, T/C [23] was 5.94% and the viability, T/C [24] was 0.5%. The viability, T/C [25] was 36.2%, the viability, T/C [26] was 31% and the viability, T/C [27] was 19.5%. For the same compound, the viability, T/C [28] was 10.8%, the viability, T/C [29] was 5.54% and the viability, T/C [30] was 0.33%. For the same compound, the viability, T/C [31] was 34.9%, the viability, T/C [32] was 28.4% and the viability, T/C [33] was 23.2%. The viability, T/C [34] was 10.9%, the viability, T/C [35] was 6.86% and the viability, T/C [36] was 0.13%.
Compound `CC[C@@]1(O)C(=O)OCc2c1cc1n(c2=O)Cc2cc3c(CN(C)C)c(O)ccc3nc2-1` + Cc1cnc(CNC(=O)c2c(=O)c3ccc(N4CCCN(C)CC4)nc3n3c2sc2ccccc23)cn1 has an IC50 (second compound 0.0316 µM) of over 316 nM, an IC50 (second compound 0.1 µM) of 263 nM and an IC50 (second compound 0.316 µM) of 176 nM. It also gave an IC50 (second compound 1 µM) of under 0.999 nM, an IC50 (second compound 3.16 µM) of under 0.999 nM and an IC50 (second compound 10 µM) of under 0.999 nM. It also gave a viability, T/C (second compound 0.0316 µM, first compound 0.000999 µM) of 95.2%, a viability, T/C (second compound 0.0316 µM, first compound 0.00316 µM) of 85.6% and a viability, T/C (second compound 0.0316 µM, first compound 0.00999 µM) of 82.4%. For the same compound, the viability, T/C [1] was 77.1%, the viability, T/C (second compound 0.0316 µM, first compound 0.0999 µM) was 64.4% and the viability, T/C [3] was 52.8%. It also gave a viability, T/C (second compound 0.1 µM, first compound 0.000999 µM) of 79.6%, a viability, T/C (second compound 0.1 µM, first compound 0.00316 µM) of 74.4% and a viability, T/C (second compound 0.1 µM, first compound 0.00999 µM) of 87.5%. The viability, T/C [7] was 60.9%, the viability, T/C (second compound 0.1 µM, first compound 0.0999 µM) was 66.6% and the viability, T/C [9] was 47.1%. For the same compound, the viability, T/C (second compound 0.316 µM, first compound 0.000999 µM) was 68.1%, the viability, T/C (second compound 0.316 µM, first compound 0.00316 µM) was 56.5% and the viability, T/C (second compound 0.316 µM, first compound 0.00999 µM) was 71.3%. The viability, T/C [13] was 70.7%, the viability, T/C (second compound 0.316 µM, first compound 0.0999 µM) was 62% and the viability, T/C [15] was 36.6%. The viability, T/C (second compound 1 µM, first compound 0.000999 µM) was 47.9%, the viability, T/C (second compound 1 µM, first compound 0.00316 µM) was 38.1% and the viability, T/C (second compound 1 µM, first compound 0.00999 µM) was 49.7%. The viability, T/C [19] was 50.1%, the viability, T/C (second compound 1 µM, first compound 0.0999 µM) was 52.2% and the viability, T/C [21] was 38.2%. For the same compound, the viability, T/C (second compound 3.16 µM, first compound 0.000999 µM) was 49.6%, the viability, T/C (second compound 3.16 µM, first compound 0.00316 µM) was 44.2% and the viability, T/C (second compound 3.16 µM, first compound 0.00999 µM) was 46.7%. It also gave a viability, T/C [25] of 40.7%, a viability, T/C (second compound 3.16 µM, first compound 0.0999 µM) of 46.2% and a viability, T/C [27] of 27.7%. The viability, T/C (second compound 10 µM, first compound 0.000999 µM) was 39.6%, the viability, T/C (second compound 10 µM, first compound 0.00316 µM) was 37.4% and the viability, T/C (second compound 10 µM, first compound 0.00999 µM) was 47.1%. The viability, T/C [31] was 41.8%, the viability, T/C (second compound 10 µM, first compound 0.0999 µM) was 41.6% and the viability, T/C [33] was 36.4%.
